# Laboratory results reported in PubChem BioAssay (NCI).
#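 96-well plates; 48 h exposure; 5 concentrations. Endpoints by linear interpolation between flanking doses. Not reached: highest tested concentration assigned. TGI: total growth inhibition.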
# How the values were obtained:
# Experiment in all cases: growth of human tumour cells (NCI), 48 h
# 786-0 renal = tested on: 786-0 renal
# A498 renal = tested on: A498 renal
# A549 NSCLC = tested on: A549 NSCLC
# ACHN renal = tested on: ACHN renal
# CAKI-1 renal = tested on: CAKI-1 renal
# CCRF-CEM leukemia = tested on: CCRF-CEM leukemia
# COLO 205 colon = tested on: COLO 205 colon
# DLD-1 colon = tested on: DLD-1 colon
# DMS 273 small cell lung = tested on: DMS 273 small cell lung
# EKVX NSCLC = tested on: EKVX NSCLC
# HCC-2998 colon = tested on: HCC-2998 colon
# HCT-116 colon = tested on: HCT-116 colon
# HCT-15 colon = tested on: HCT-15 colon
# HL-60(TB) leukemia = tested on: HL-60(TB) leukemia
# HOP-18 NSCLC = tested on: HOP-18 NSCLC
# HOP-62 NSCLC = tested on: HOP-62 NSCLC
# HOP-92 NSCLC = tested on: HOP-92 NSCLC
# HT29 colon = tested on: HT29 colon
# IGROV1 ovarian = tested on: IGROV1 ovarian
# K-562 leukemia = tested on: K-562 leukemia
# KM12 colon = tested on: KM12 colon
# KM20L2 colon = tested on: KM20L2 colon
# LOX IMVI melanoma = tested on: LOX IMVI melanoma
# LXFL 529 NSCLC = tested on: LXFL 529 NSCLC
# M14 melanoma = tested on: M14 melanoma
# M19-MEL melanoma = tested on: M19-MEL melanoma
# MALME-3M melanoma = tested on: MALME-3M melanoma
# NCI-H226 lung = tested on: NCI-H226 lung
# NCI-H23 lung = tested on: NCI-H23 lung
# NCI-H460 lung = tested on: NCI-H460 lung
# NCI-H522 lung = tested on: NCI-H522 lung
# OVCAR-3 ovarian = tested on: OVCAR-3 ovarian
# OVCAR-4 ovarian = tested on: OVCAR-4 ovarian
# OVCAR-5 ovarian = tested on: OVCAR-5 ovarian
# OVCAR-8 ovarian = tested on: OVCAR-8 ovarian
# RXF 393 renal = tested on: RXF 393 renal
# SF-268 CNS = tested on: SF-268 CNS
# SF-295 CNS = tested on: SF-295 CNS
# SF-539 CNS = tested on: SF-539 CNS
# SK-MEL-2 melanoma = tested on: SK-MEL-2 melanoma
# SK-MEL-28 melanoma = tested on: SK-MEL-28 melanoma
# SK-MEL-5 melanoma = tested on: SK-MEL-5 melanoma
# SK-OV-3 ovarian = tested on: SK-OV-3 ovarian
# SN12C renal = tested on: SN12C renal
# SNB-19 CNS = tested on: SNB-19 CNS
# SNB-75 CNS = tested on: SNB-75 CNS
# SNB-78 CNS = tested on: SNB-78 CNS
# SR leukemia = tested on: SR leukemia
# SW-620 colon = tested on: SW-620 colon
# TK-10 renal = tested on: TK-10 renal
# U251 CNS = tested on: U251 CNS
# UACC-257 melanoma = tested on: UACC-257 melanoma
# UACC-62 melanoma = tested on: UACC-62 melanoma
# UO-31 renal = tested on: UO-31 renal
# DMS 114 small cell lung = tested on: DMS 114 small cell lung
# MOLT-4 leukemia = tested on: MOLT-4 leukemia
# RPMI-8226 leukemia = tested on: RPMI-8226 leukemia
structure (smiles),measurement,setting,value
Nc1nc[n+](Cc2ccccc2)c2ncn(Cc3ccccc3)c12,TGI,786-0 renal,> 100 µM
same,TGI,A498 renal,> 100 µM
same,TGI,A549 NSCLC,> 100 µM
same,TGI,ACHN renal,> 100 µM
same,TGI,CAKI-1 renal,> 100 µM
same,TGI,CCRF-CEM leukemia,> 100 µM
same,TGI,COLO 205 colon,82.8 µM
same,TGI,DLD-1 colon,> 100 µM
same,TGI,DMS 273 small cell lung,> 100 µM
same,TGI,EKVX NSCLC,> 100 µM
same,TGI,HCC-2998 colon,60.4 µM
same,TGI,HCT-116 colon,> 100 µM
same,TGI,HCT-15 colon,> 100 µM
same,TGI,HL-60(TB) leukemia,> 100 µM
same,TGI,HOP-18 NSCLC,> 100 µM
same,TGI,HOP-62 NSCLC,> 100 µM
same,TGI,HOP-92 NSCLC,96.6 µM
same,TGI,HT29 colon,> 100 µM
same,TGI,IGROV1 ovarian,> 100 µM
same,TGI,K-562 leukemia,> 100 µM
same,TGI,KM12 colon,> 100 µM
same,TGI,KM20L2 colon,> 100 µM
same,TGI,LOX IMVI melanoma,> 100 µM
same,TGI,LXFL 529 NSCLC,> 100 µM
same,TGI,M14 melanoma,86.3 µM
same,TGI,M19-MEL melanoma,> 100 µM
same,TGI,MALME-3M melanoma,> 100 µM
same,TGI,NCI-H226 lung,> 100 µM
same,TGI,NCI-H23 lung,> 100 µM
same,TGI,NCI-H460 lung,> 100 µM
same,TGI,NCI-H522 lung,> 100 µM
same,TGI,OVCAR-3 ovarian,> 100 µM
same,TGI,OVCAR-4 ovarian,> 100 µM
same,TGI,OVCAR-5 ovarian,> 100 µM
same,TGI,OVCAR-8 ovarian,> 100 µM
same,TGI,RXF 393 renal,71 µM
same,TGI,SF-268 CNS,> 100 µM
same,TGI,SF-295 CNS,> 100 µM
same,TGI,SF-539 CNS,> 100 µM
same,TGI,SK-MEL-2 melanoma,> 100 µM
same,TGI,SK-MEL-28 melanoma,> 100 µM
same,TGI,SK-MEL-5 melanoma,> 100 µM
same,TGI,SK-OV-3 ovarian,> 100 µM
same,TGI,SN12C renal,> 100 µM
same,TGI,SNB-19 CNS,> 100 µM
same,TGI,SNB-75 CNS,> 100 µM
same,TGI,SNB-78 CNS,> 100 µM
same,TGI,SR leukemia,> 100 µM
same,TGI,SW-620 colon,> 100 µM
same,TGI,TK-10 renal,> 100 µM
same,TGI,U251 CNS,> 100 µM
same,TGI,UACC-257 melanoma,> 100 µM
same,TGI,UACC-62 melanoma,> 100 µM
same,TGI,UO-31 renal,> 100 µM
Cc1ccccc1NC(=O)c1cc2cc(N=Nc3ccccc3C(=O)O)ccc2oc1=O,TGI,786-0 renal,69.6 µM
same,TGI,A549 NSCLC,> 100 µM
same,TGI,ACHN renal,> 100 µM
same,TGI,CCRF-CEM leukemia,80.4 µM
same,TGI,COLO 205 colon,27.8 µM
same,TGI,DLD-1 colon,54.3 µM
same,TGI,DMS 114 small cell lung,41.2 µM
same,TGI,DMS 273 small cell lung,42.5 µM
same,TGI,EKVX NSCLC,> 100 µM
same,TGI,HCT-116 colon,57.9 µM
same,TGI,HCT-15 colon,36.7 µM
same,TGI,HL-60(TB) leukemia,55.6 µM
same,TGI,HOP-18 NSCLC,35.1 µM
same,TGI,HOP-62 NSCLC,43.3 µM
same,TGI,HT29 colon,38.3 µM
same,TGI,IGROV1 ovarian,65.2 µM
same,TGI,K-562 leukemia,79.5 µM
same,TGI,KM12 colon,27.8 µM
same,TGI,KM20L2 colon,32.1 µM
same,TGI,LOX IMVI melanoma,41.6 µM
same,TGI,M14 melanoma,37.7 µM
same,TGI,M19-MEL melanoma,27.3 µM
same,TGI,MALME-3M melanoma,25 µM
same,TGI,MOLT-4 leukemia,83.5 µM
same,TGI,NCI-H226 lung,44 µM
same,TGI,NCI-H23 lung,12.2 µM
same,TGI,NCI-H460 lung,60 µM
same,TGI,NCI-H522 lung,29.5 µM
same,TGI,OVCAR-3 ovarian,> 100 µM
same,TGI,OVCAR-8 ovarian,> 100 µM
same,TGI,RPMI-8226 leukemia,60.2 µM
same,TGI,RXF 393 renal,33.9 µM
same,TGI,SF-295 CNS,39.2 µM
same,TGI,SF-539 CNS,37.5 µM
same,TGI,SK-MEL-2 melanoma,47.7 µM
same,TGI,SK-MEL-28 melanoma,41.2 µM
same,TGI,SK-MEL-5 melanoma,30.7 µM
same,TGI,SK-OV-3 ovarian,68.7 µM
same,TGI,SN12C renal,53.3 µM
same,TGI,SNB-75 CNS,35.6 µM
same,TGI,SW-620 colon,> 100 µM
same,TGI,TK-10 renal,> 100 µM
same,TGI,U251 CNS,51.5 µM
same,TGI,UACC-257 melanoma,24.1 µM
same,TGI,UACC-62 melanoma,17.9 µM
same,TGI,UO-31 renal,50.6 µM
